How the values were obtained:
Assay in all cases: In vitro antifungal activity, microbroth dilution MIC
Format in all cases: cell-based
Details in all cases: RPMI-1640, 35° C., 4 to 48 hours, no growth observed
[1] = test system: Cryptococcus neoformans B. 42419
Summary of the method: (§1)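 Broth microdilution adapted from NCCLS M27, in RPMI-1640 with 0.165 M MOPS, pH 7.0. Yeast or mould inoculum at 2×10^3 CFU/ml was mixed 1:1 with DMSO-derived compound solutions (200 to 0.10 μg/ml before mixing) and incubated at 35 °C for 4 to 48 h. MIC was the concentration showing no growth.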

[2] = test system: Torulopsis glabrata B. 16205
Summary of the method: as §1

[3] = test system: Candida pseudotropicalis K. 11658
Summary of the method: as §1

[4] = test system: Candida parapsitosis A. 7330
Summary of the method: as §1

[5] = test system: Candida albicans A. 10231
Summary of the method: as §1

[6] = test system: Candida tropicalis A. 13803
Summary of the method: as §1

[7] = test system: Aspergillus niger A. 16404
Summary of the method: as §1

[8] = test system: Trichophyton mentagrophytes A. 9129
Summary of the method: as §1

[9] = test system: Cryptococcus neoformans A. 34144
Summary of the method: as §1

[10] = test system: Aspergillus furnigatus B. 19119
Summary of the method: as §1

Candida krusei K. 11655 = test system: Candida krusei K. 11655
Summary of the method: as §1

[11] = test system: Trichophyton mentagrophytes B. 32663
Summary of the method: as §1

[12] = test system: Candida albicans IFO. 1385
Summary of the method: as §1

[13] = test system: Cryptococcus neoformans IFM. 40092
Summary of the method: as §1

Candida albicans C1-2 = test system: Candida albicans C1-2
Summary of the method: as §1

Row | Compound | Minimal inhibitory concentration(MIC), Cry. neoformans B. 42419 [1] [µg/mL] | Minimal inhibitory concentration(MIC), T. glabrata B. 16205 [2] [µg/mL] | Minimal inhibitory concentration(MIC), C. pseudotropicalis K. 11658 [3] [µg/mL] | Minimal inhibitory concentration(MIC), C. parapsitosis A. 7330 [4] [µg/mL] | Minimal inhibitory concentration(MIC), C. albicans A. 10231 [5] [µg/mL] | Minimal inhibitory concentration(MIC), C. tropicalis A. 13803 [6] [µg/mL] | Minimal inhibitory concentration(MIC), A. niger A. 16404 [7] [µg/mL] | Minimal inhibitory concentration(MIC), T. mentagrophytes A. 9129 [8] [µg/mL] | Minimal inhibitory concentration(MIC), Cry. neoformans A. 34144 [9] [µg/mL] | Minimal inhibitory concentration(MIC), A furnigatus B. 19119 [10] [µg/mL] | Minimal inhibitory concentration(MIC), C. krusei K. 11655 (Candida krusei K. 11655) [µg/mL] | Minimal inhibitory concentration(MIC), T. mentagrophytes B. 32663 [11] [µg/mL] | Minimal inhibitory concentration(MIC), C. albicans IFO. 1385 [12] [µg/mL] | Minimal inhibitory concentration(MIC), Cry. neoformans IFM. 40092 [13] [µg/mL] | Minimal inhibitory concentration(MIC), C. albicans C1-2 (Candida albicans C1-2) [µg/mL]
1 | FC(=C(c1ccc(C(F)(F)F)cc1)C(F)(F)F)N1CCN(c2ccc(OCC3COC(Cn4ccnc4)(c4ccc(Cl)cc4Cl)O3)cc2)CC1 (mixture of isomers) [Ex. 130] | 0.78 | >100 | 1.56 | 1.56 | >100 | >100 | >100 | 25.0 | 0.78 | >100 | 1.56 | 12.5 | 3.13 | 0.20 | >100
2 | COc1ccc(C(=C(F)N2CCN(c3ccc(OCC4COC(Cn5ccnc5)(c5ccc(Cl)cc5Cl)O4)cc3)CC2)C(F)(F)F)cc1 (mixture of isomers) [Ex. 131] | 0.78 | >100 | 1.56 | 3.13 | >100 | >100 | >100 | 6.25 | 0.39 | >100 | 1.56 | 1.56 | 1.56 | 0.20 | >100
3 | FC(=C(c1ccc2c(c1)OCO2)C(F)(F)F)N1CCN(c2ccc(OCC3COC(Cn4ccnc4)(c4ccc(Cl)cc4Cl)O3)cc2)CC1 (mixture of isomers) [Ex. 132] | 0.78 | >100 | 1.56 | 1.56 | >100 | >100 | >100 | 6.25 | 0.78 | >100 | 1.56 | 1.56 | 1.56 | 0.20 | >100
4 | FC(=C(c1cccc(Cl)c1)C(F)(F)F)N1CCN(c2ccc(OCC3COC(Cn4ccnc4)(c4ccc(Cl)cc4Cl)O3)cc2)CC1 (mixture of isomers) [Ex. 133] | 0.39 | >100 | 1.56 | 3.13 | >100 | >100 | >100 | 6.25 | 0.78 | >100 | 1.56 | 1.56 | 3.13 | 0.20 | >100
5 | FC(=C(c1ccc(Cl)cc1)C(F)(F)F)N1CCN(c2ccc(OCC3COC(Cn4ccnc4)(c4ccc(Cl)cc4Cl)O3)cc2)CC1 (mixture of isomers) [Ex. 134] | 0.78 | >100 | 1.56 | 3.13 | >100 | >100 | >100 | 6.25 | 0.39 | >100 | 1.56 | 1.56 | 1.56 | 0.20 | >100
6 | FC(=C(c1ccc(F)cc1)C(F)(F)F)N1CCN(c2ccc(OCC3COC(Cn4ccnc4)(c4ccc(Cl)cc4Cl)O3)cc2)CC1 (mixture of isomers) [Ex. 135] | 0.78 | >100 | 1.56 | 1.56 | >100 | >100 | >100 | 3.13 | 0.39 | >100 | 1.56 | 1.56 | 1.56 | 0.20 | >100
